The source of these data is patent US6599521B1 (priority 2000, dated 2003).

One assay has as its system TSST-1. In kind it is cell-based, Staphylococcus aureus. Conditions: 24 hours at 35° C.
The next assay deals with S. aureus MN8. The format is cell-based, Staphylococcus aureus. Conditions: 24 hours at 35° C.

`CCCCCCCCCCCCOCCOCCOCCOCCO` [Laureth-4]: the “TSST-1” value in the assay on TSST-1 amounted to 531.8 ng/mL. Also, the “Final [S. aureus] (× 10^9 CFU/ml)” value in the assay on S. aureus MN8 is 4.57 × 10^9 CFU/ml.
Consider `CCCCCCCCCCCCCCCCCCOCCOCCO` [Steareth-2], for which the “TSST-1” value in the assay on TSST-1 is 680.7 ng/mL. Besides, in the assay on S. aureus MN8, the “Final [S. aureus] (× 10^9 CFU/ml)” value is recorded as 5.76 × 10^9 CFU/ml.
For PPG-5 Laureth-5 the same measures were 609.2 ng/mL and 3.82 × 10^9 CFU/ml.
